Measured values: US8633251B2, “Derivatives of aminoalkanols, method of obtaining of aminoalkanols and their use” (Uniwersytet Jagiellonski, priority 2008, dated 2014)
Where a name gives a salt, the structure may show the parent alone. Read-outs that look alike come from different tables or passages of the source.

Assays:
[1] = test system: maximal electroshock seizures; assay: Maximum Electroshock Seizure (MES) test, mice; type: in vivo
Description: (§1) In order to define anticonvulsant activity, screening tests were performed, using animal models of seizures. […] Each substance (after dissolving in methylcellulose) was normally tested in doses 30, 100, and 300 mg/kg body weight (b.w.) (mice) or in 30 and 50 mg/kg b.w. (rats) in two possible routes of administration: intraperitoneal (i.p.) or oral (p.o.). Appropriate tests were performed 0.5 and 4 h after administration of the compound. […] (mice) the tests were also performed in doses 10 and 3 mg/kg b.w.
Maximum Electroshock Seizure (MES) test is an electric test, verifying activity towards generalized tonic-clonic seizures (grand mal epilepsy). […] Its procedure consists in administration to an animal a mentioned dose, and after 0.5 or 4 h attaching corneal electrodes (after anesthetic eye-drops: 0.5% tetracaine hydrochloride in 0.9% NaCl) and turning on electric current (60 Hz, 0.2 s, 50 mA (mice) or 150 mA (rats)). […] Normally, in the dose 30 mg/kg b.w. the test is done in 1 mouse after 0.5 or 4 h, in the dose 100 mg/kg b.w.—in 3 mice, and in the dose 300 mg/kg b.w.—in 1 mouse.

neurotoxicity (rotarod) = assay: Neurotoxicity test (TOX), rotarod, mice; type: in vivo
Description: as §1
It is performed with use of rotarod test. The animal is placed on a plastic rod (1 inch in diameter), rotating 6 rpm. The rod is placed on a level discouraging the animal to jump off. […] Neurotoxicity is stated if the animal cannot stay on the rod for 1 min. in any of 3 trials. Normally the test is performed in dose 30 mg/kg b.w. in 4 mice (0.5 h) and in 2 mice (4 h), in the dose 100 mg/kg b.w. in 8 mice (0.5 h) and in 4 mice (4 h) and in the dose 300 mg/kg b.w. in 4 mice (0.5 h) and 2 mice (4 h).

[2] = mice, dose 100 mg/kg b.w., time 0.5 h
[3] = mice, dose 300 mg/kg b.w., time 0.5 h
[4] = mice, dose 30 mg/kg b.w., time 0.5 h
[5] = mice, dose 300 mg/kg b.w., time 4 h
[6] = Mus musculus, 0.5 h, read-out: MES, No. of protected animals/No. of used animals
[7] = mice, dose 100 mg/kg b.w., time 4 h

| Structure (SMILES) | MES, No. of protected animals/No. of used animals [1, 2] | TOX, No. of animals exhibiting motor impairment/no. of used animals (neurotoxicity (rotarod); mouse, in vivo, 300 mg/kg) | MES, No. of protected animals/No. of used animals [1, 4] | TOX, No. of animals exhibiting motor impairment/no. of used animals (neurotoxicity (rotarod); [3]) | TOX, No. of animals exhibiting motor impairment/no. of used animals (neurotoxicity (rotarod); [2]) | also measured |
| --- | --- | --- | --- | --- | --- | --- |
| Cc1ccc(C)c(OCCNC(C)CO)c1 (centres unmarked) [Compound 6, R,S-2N-[(2,5-dimethylphenoxy)ethyl]amino-1-propanol] | 3/3 | 4/4 |  |  |  | MES, No. of protected animals/No. of used animals [1, 3]: 1/1 |
| CCC(O)CNCCOc1cc(C)ccc1C (centres unmarked) [Compound 7, R,S-1N-[(2,5-dimethylphenoxy)ethyl]amino-2-butanol] | 3/3 | 4/4 |  |  |  | MES, No. of protected animals/No. of used animals [1, 3]: 1/1; TOX, No. of animals exhibiting motor impairment/no. of used animals (neurotoxicity (rotarod); mouse, in vivo, 100 mg/kg): 8/8 |
| CCC(CO)NCCOc1cc(C)ccc1C (centres unmarked) [Compound 8, R,S-2N-[(2,5-dimethylphenoxy)ethyl]amino-1-butanol] | 3/3 | 4/4 |  |  |  | TOX, No. of animals exhibiting motor impairment/no. of used animals (neurotoxicity (rotarod); mouse, in vivo, 100 mg/kg): 8/8 |
| Cc1cccc(C)c1OCCNC(C)CO.Cl (centres unmarked) [Compound 11a, R,S-2N-[(2,6-dimethylphenoxy)ethyl]amino-1-propanol hydrochloride] | 1/1 | 4/4 | 1/1 |  |  | TOX, No. of animals exhibiting motor impairment/no. of used animals (neurotoxicity (rotarod); mouse, in vivo, 30 mg/kg): 3/4; TOX, No. of animals exhibiting motor impairment/no. of used animals (neurotoxicity (rotarod); mouse, in vivo, 100 mg/kg): 8/8 |
| Cc1cccc(C)c1OCCN[C@H](C)CO [Compound 12a, R-(−)-2N-[(2,6-dimethylphenoxy)ethyl]amino-1-propanol hydrochloride] |  |  |  |  |  | MES, No. of protected animals/No. of used animals ([1]; mice, dose 100 mg/kg b.w., time 0.5 h, hydrochloride, 100 mg/kg): 3/3; TOX, No. of animals exhibiting motor impairment/no. of used animals (neurotoxicity (rotarod); [5]): 1/1 |
| Cc1cccc(C)c1OCCN[C@@H](C)CO.Cl [Compound 13a, S-(+)-2N-[(2,6-dimethylphenoxy)ethyl]amino-1-propanol hydrochloride] | 3/3 | 4/4 | 1/1 |  |  | TOX, No. of animals exhibiting motor impairment/no. of used animals (neurotoxicity (rotarod); mouse, in vivo, 100 mg/kg): 8/8 |
| Cc1cccc(C)c1OCCNC(C)(C)CCO [Compound 15, 3N-[(2,6-dimethylphenoxy)ethyl]amino-3-methyl-1-butanol hydrochloride] |  |  |  | 7/8 |  | responders at 10 mg/kg [1, 6]: 100%; responders at 300 mg/kg [1, 6]: 100%; TOX, No. of animals exhibiting motor impairment/no. of used animals (neurotoxicity (rotarod); mice, dose 10 mg/kg b.w., time 0.5 h): 7/8; TOX, No. of animals exhibiting motor impairment/no. of used animals (neurotoxicity (rotarod); [4]): 4/4 |
| Cc1cccc(C)c1OCCN[C@H](CO)C(C)C [Compound 16, L-2N-[(2,6-dimethylphenoxy)ethyl]amino-3-methyl-1-butanol hydrochloride] |  |  |  | 4/4 | 7/8 | responders at 100 mg/kg [1, 6]: 100% |
| Cc1cccc(C)c1OCCNCCCCCO [Compound 17, 5N-[(2,6-dimethylphenoxy)ethyl]amino-1-pentanol hydrochloride] |  |  |  | 4/4 | 7/8 | responders at 100 mg/kg [1, 6]: 100%; TOX, No. of animals exhibiting motor impairment/no. of used animals (neurotoxicity (rotarod); [5]): 1/1 |
| Cc1cccc(C)c1OCCNCC(O)c1ccccc1 (centres unmarked) [Compound 19, R,S-2N-[(2,6-dimethylphenoxy)ethyl]amino-1-phenylethanol] | 3/3 |  | 1/1 | 4/4 | 8/8 | TOX, No. of animals exhibiting motor impairment/no. of used animals (neurotoxicity (rotarod); [4]): 1/4 |
| Cc1cccc(C)c1OCCNC[C@@H](O)c1ccccc1 [Compound 21, S-(+)-2N-[(2,6-dimethylphenoxy)ethyl]amino-1-phenylethanol] | 3/3 |  | 1/1 | 4/4 | 7/8 |  |
| Cc1cccc(Cl)c1OCCNC(C)CO (centres unmarked) [Compound 24, R,S-2N-[(2-chlor-6-methylphenoxy)ethyl]amino-1-propanol] | 3/3 |  |  | 4/4 | 5/8 |  |
| CCC(O)CNCCOc1c(C)cccc1Cl (centres unmarked) [Compound 25, R,S-1N-[(2-chlor-6-methylphenoxy)ethyl]amino-2-butanol] |  |  | 1/1 | 4/4 | 8/8 |  |
| CCC(CO)NCCOc1c(C)cccc1Cl.Cl (centres unmarked) [Compound 26a, R,S-2N-[(2-chlor-6-methylphenoxy)ethyl]amino-1-butanol hydrochloride] | 1/1 |  | 1/1 | 4/4 | 8/8 | TOX, No. of animals exhibiting motor impairment/no. of used animals (neurotoxicity (rotarod); [4]): 3/4; TOX, No. of animals exhibiting motor impairment/no. of used animals (neurotoxicity (rotarod); [7]): 1/4 |
| CC[C@H](CO)NCCOc1c(C)cccc1Cl.Cl [Compound 27a, R-(−)-2N-[(2-chlor-6-methylphenoxy)ethyl]amino-1-butanol hydrochloride] | 2/3 |  | 1/1 | 4/4 | 7/8 |  |
| CC[C@@H](CO)NCCOc1c(C)cccc1Cl.Cl [Compound 28a, S-(+)-2N-[(2-chlor-6-methylphenoxy)ethyl]amino-1-butanol hydrochloride] | 1/1 |  |  | 4/4 | 5/8 |  |
| Cc1cccc(Cl)c1OCCNC(C)(CO)CO [Compound 29, 2N-[(2-chlor-6-methylphenoxy)ethyl]amino-2-methyl-1,3-propandiol] | 2/3 | 4/4 |  |  |  | TOX, No. of animals exhibiting motor impairment/no. of used animals (neurotoxicity (rotarod); mouse, in vivo, 100 mg/kg): 4/8 |
| Cc1cccc(Cl)c1OCCNCC(O)c1ccccc1 (centres unmarked) [Compound 31, R,S-2N-[(2-chlor-6-methylphenoxy)ethyl]amino-1-phenylethanol] | 3/3 |  | 1/1 | 4/4 | 8/8 | MES, No. of protected animals/No. of used animals [1, 3]: 1/1 |
| CCC(O)CNCCOc1ccc(Cl)cc1C (centres unmarked) [Compound 34, R,S-1N-[(4-chlor-2-methylphenoxy)ethyl]amino-2-butanol] | 3/3 |  |  | 4/4 | 7/8 | TOX, No. of animals exhibiting motor impairment/no. of used animals (neurotoxicity (rotarod); [4]): 1/4 |
| CCC(CO)NCCOc1ccc(Cl)cc1C (centres unmarked) [Compound 35, R,S-2N-[(4-chlor-2-methylphenoxy)ethyl]amino-1-butanol] | 3/3 |  |  | 4/4 | 8/8 |  |
| Cc1cc(Cl)ccc1OCCNC(C)(C)CO [Compound 36, 2N-[(4-chlor-2-methylphenoxy)ethyl]amino-2-methyl-1-propanol] | 3/3 |  |  | 4/4 |  |  |
| Cc1cc(C)c(C)c(OCCNC(C)CO)c1 (centres unmarked) [Compound 38, R,S-2N-[(2,3,5-trimethylphenoxy)ethyl]amino-1-propanol] | 3/3 | 4/4 | 1/1 |  |  | MES, No. of protected animals/No. of used animals [1, 7]: 2/2 |
| CCC(CO)NCCOc1cc(C)cc(C)c1C (centres unmarked) [Compound 39, R,S-2N-[(2,3,5-trimethylphenoxy)ethyl]amino-1-butanol] | 3/3 | 4/4 | 1/1 |  |  | MES, No. of protected animals/No. of used animals [1, 7]: 1/3; TOX, No. of animals exhibiting motor impairment/no. of used animals (neurotoxicity (rotarod); mouse, in vivo, 100 mg/kg): 7/8 |
| CC[C@H](CO)NCCOc1cc(C)cc(C)c1C [Compound 40, R-(−)-2N-[(2,3,5-trimethylphenoxy)ethyl]amino-1-butanol] |  |  |  | 4/4 | 4/8 | responders at 30 mg/kg ([1]; Mus musculus, mice, dose 30 mg/kg b.w., time 0.5 h, read-out: MES, No. of protected animals/No. of used animals): 100%; responders at 100 mg/kg ([1]; Mus musculus, mice, dose 100 mg/kg b.w., time 0.5 h, read-out: MES, No. of protected animals/No. of used animals (converted)): 66.7%; responders at 100 mg/kg ([1]; Mus musculus, mice, dose 100 mg/kg b.w., time 4 h, read-out: MES, No. of protected animals/No. of used animals (converted)): 33.3% |
